Reference: ChEMBL document CHEMBL4699404, “Arylsulfonyl histamine derivatives as powerful and selective alpha-glucosidase inhibitors” (RSC Med Chem, 2020)
Calls of active or inactive are those of the source. The calls are words filed in the database; no cut-off is given here.

Assays:
Saccharomyces cerevisiae [1] = test: Inhibition of Saccharomyces cerevisiae alpha-glucosidase using p-nitrophenyl-alpha-o-D-glucopyranoside as substrate at 100 uM measured for 10 mins by microplate assay relative to control
[2] = molecular target: Xanthine dehydrogenase/oxidase (Bos taurus, UniProt P80457); test: Inhibition of bovine milk xanthine oxidase assessed as reduction in uric acid formation at 3 uM using xanthine as substrate measured for 20 mins by microplate assay; conditions: cattle
Saccharomyces cerevisiae [3] = test: Reversible inhibition of Saccharomyces cerevisiae alpha-glucosidase assessed as recovery of enzyme activity preincubated with enzyme for 30 mins followed by 100-fold dilution and challenge with substrate by jump dilution experiment based microplate assay; design: scale not given: the % may be the effect or the level left
[4] = molecular target: Acetylcholinesterase (Electrophorus electricus) (UniProt O42275); test: Inhibition of electric eel AChE using acetylthiocholine iodide as substrate at 1.5 uM measured for 15 mins by Ellman's method relative to control
[5] = Toxicity against C57BL/6 mouse assessed as general body position changes at 22.5 mg/kg, po administered via gavage; format: organism-based; conditions: in vivo
Mus musculus [6] = test: Hypoglycemic activity in C57BL/6 mouse assessed as reduction in sucrose-induced postprandial blood glucose level at 22.5 mg/kg, po administered via gavage and measured after 15 to 90 mins by oral sucrose loading test; format: functional, organism-based; conditions: time min 15-90
[7] = Toxicity against C57BL/6 mouse assessed as changes in water consumption at 22.5 mg/kg, po administered via gavage measured for 24 hrs; format: organism-based; conditions: in vivo
Kluyveromyces lactis = test: Inhibition of Kluyveromyces lactis beta-galactosidase using o-nitrophenyl-beta-o-D-galactopyranoside as substrate at 100 to 2500 uM measured for 10 mins; conditions: dose microM 100-2500, time 10.0 min
Saccharomyces cerevisiae [8] = test: Inhibition of Saccharomyces cerevisiae alpha-glucosidase using p-nitrophenyl-alpha-o-D-glucopyranoside as substrate at 122 uM measured for 10 mins by microplate assay relative to control
[9] = Toxicity against C57BL/6 mouse assessed as changes in food consumption at 22.5 mg/kg, po administered via gavage measured for 24 hrs; format: organism-based; conditions: in vivo
[10] = Toxicity against C57BL/6 mouse assessed as locomotory changes at 22.5 mg/kg, po administered via gavage; format: organism-based; conditions: in vivo
[11] = molecular target: Mushroom tyrosinase (Agaricus bisporus) (UniProt O42713+Q00024+C7FF04+C7FF05); test: Inhibition of mushroom tyrosinase assessed as reduction in dopachrome formation at 40 uM using L-tyrosine as substrate measured for 30 mins by microplate assay
[12] = Toxicity against C57BL/6 mouse assessed as behavioural changes at 22.5 mg/kg, po administered via gavage; format: organism-based; conditions: in vivo
Mus musculus [13] = test: Hypoglycemic activity in C57BL/6 mouse assessed as reduction in postprandial blood glucose level at 22.5 mg/kg, po administered via gavage measured after 15 to 90 mins by glucometric analysis; format: functional, organism-based; conditions: time min 15-90
[14] = Inhibition of porcine pancreatic alpha-amylase assessed as reduction in conversion of starch to glucose using starch as substrate at 200 uM incubated for 15 mins by starch-iodine method; design: species or system Sus scrofa; conditions: pig, 0.25 h
Saccharomyces cerevisiae [15] = test: Potency index, ratio of acarbose Ki to test compound Ki for competitive inhibition of Saccharomyces cerevisiae alpha-glucosidase using varying levels of p-nitrophenyl-alpha-D-glucopyranoside as substrate by Lineweaver-Burk plot analysis
Prunus dulcis = test: Inhibition of almonds beta-glucosidase using p-nitrophenyl-beta-o-D-glucopyranoside as substrate at 65 uM measured for 10 mins
[16] = Inhibition of almonds beta-glucosidase using p-nitrophenyl-beta-o-D-glucopyranoside as substrate measured for 10 mins; design: species or system Prunus dulcis
[17] = Inhibition of Kluyveromyces lactis beta-galactosidase using o-nitrophenyl-beta-o-D-galactopyranoside as substrate measured for 10 mins

Acetylcholinesterase (Electrophorus electricus), sequence (O42275 24-633 limits assumed): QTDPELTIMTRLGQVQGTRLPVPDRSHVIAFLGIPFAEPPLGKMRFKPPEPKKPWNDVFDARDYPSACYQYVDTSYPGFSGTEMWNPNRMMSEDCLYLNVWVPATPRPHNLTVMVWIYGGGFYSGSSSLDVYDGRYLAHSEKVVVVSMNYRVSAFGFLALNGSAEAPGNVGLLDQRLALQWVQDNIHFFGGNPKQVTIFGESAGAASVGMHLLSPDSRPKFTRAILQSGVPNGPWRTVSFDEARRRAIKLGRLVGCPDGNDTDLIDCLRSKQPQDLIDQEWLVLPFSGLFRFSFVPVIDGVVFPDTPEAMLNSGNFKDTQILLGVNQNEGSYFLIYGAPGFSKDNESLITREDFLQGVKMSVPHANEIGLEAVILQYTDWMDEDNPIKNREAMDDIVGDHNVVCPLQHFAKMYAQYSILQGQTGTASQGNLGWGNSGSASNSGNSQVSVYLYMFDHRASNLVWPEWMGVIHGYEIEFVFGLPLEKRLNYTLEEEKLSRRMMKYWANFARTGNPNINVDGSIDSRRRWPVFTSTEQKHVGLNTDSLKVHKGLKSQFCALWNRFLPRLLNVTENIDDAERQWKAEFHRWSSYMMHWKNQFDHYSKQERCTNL
Xanthine dehydrogenase/oxidase, sequence (P80457 whole entry): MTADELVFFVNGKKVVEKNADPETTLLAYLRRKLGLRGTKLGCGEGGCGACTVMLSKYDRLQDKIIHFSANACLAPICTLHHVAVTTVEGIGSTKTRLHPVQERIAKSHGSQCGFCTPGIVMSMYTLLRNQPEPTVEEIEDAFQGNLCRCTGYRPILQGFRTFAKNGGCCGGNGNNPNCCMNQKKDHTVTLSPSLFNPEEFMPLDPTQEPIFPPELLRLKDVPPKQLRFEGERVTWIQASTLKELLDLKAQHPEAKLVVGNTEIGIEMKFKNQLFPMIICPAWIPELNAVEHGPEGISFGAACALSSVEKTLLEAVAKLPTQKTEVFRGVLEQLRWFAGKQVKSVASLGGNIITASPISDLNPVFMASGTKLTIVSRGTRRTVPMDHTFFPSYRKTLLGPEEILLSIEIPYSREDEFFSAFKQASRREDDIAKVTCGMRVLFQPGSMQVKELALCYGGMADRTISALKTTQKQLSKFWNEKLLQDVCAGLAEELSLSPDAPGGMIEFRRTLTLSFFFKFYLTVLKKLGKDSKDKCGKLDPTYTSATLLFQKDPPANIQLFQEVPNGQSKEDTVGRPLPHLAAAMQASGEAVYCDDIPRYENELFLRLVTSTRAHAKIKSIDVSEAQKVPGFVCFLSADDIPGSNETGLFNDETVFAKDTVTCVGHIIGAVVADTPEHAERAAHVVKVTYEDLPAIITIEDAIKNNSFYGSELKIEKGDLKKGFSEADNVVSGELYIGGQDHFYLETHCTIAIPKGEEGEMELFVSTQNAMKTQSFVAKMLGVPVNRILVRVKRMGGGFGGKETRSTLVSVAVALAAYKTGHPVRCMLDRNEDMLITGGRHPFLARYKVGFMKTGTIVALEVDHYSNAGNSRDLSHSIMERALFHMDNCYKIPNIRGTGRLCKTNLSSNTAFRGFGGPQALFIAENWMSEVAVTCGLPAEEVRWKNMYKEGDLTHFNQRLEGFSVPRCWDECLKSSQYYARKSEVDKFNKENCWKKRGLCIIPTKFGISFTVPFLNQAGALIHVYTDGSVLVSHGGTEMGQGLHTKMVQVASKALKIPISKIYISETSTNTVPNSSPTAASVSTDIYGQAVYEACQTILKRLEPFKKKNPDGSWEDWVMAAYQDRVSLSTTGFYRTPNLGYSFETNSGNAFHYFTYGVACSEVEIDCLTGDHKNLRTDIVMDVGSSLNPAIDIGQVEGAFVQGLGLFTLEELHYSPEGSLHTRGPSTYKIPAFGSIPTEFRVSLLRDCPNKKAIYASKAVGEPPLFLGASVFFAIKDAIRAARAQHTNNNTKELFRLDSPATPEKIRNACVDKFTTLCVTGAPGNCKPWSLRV

Question: For `Cc1ccc(F)c(S(=O)(=O)NCCc2c[nH]cn2)c1`, which inhibition (Saccharomyces cerevisiae [1]) is on record?
Answer: < 50%

Question: For `O=S(=O)(NCCc1c[nH]cn1)c1ccc(F)cc1C(F)(F)F`, which inhibition (Saccharomyces cerevisiae [1]) is on record?
Answer: < 50%

Question: With `O=S(=O)(NCCc1cn(S(=O)(=O)c2ccc(C(F)(F)F)cc2)cn1)c1ccc(C(F)(F)F)cc1` as the compound, how does the “inhibition (INH)” value [2] read?
Answer: Not Active

Question: And the Activity (Saccharomyces cerevisiae [3])?
Answer: 97%

Question: And the inhibition (Saccharomyces cerevisiae [1])?
Answer: > 50%

Question: What about the inhibition [4] of the same compound?
Answer: 2.31%

Question: What about the Activity [5] of the same compound?
Answer: Non-Toxic

Question: And the Activity (Mus musculus [6])?
Answer: Active

Question: And the Activity [7]?
Answer: Non-Toxic

Question: What about the inhibition (Kluyveromyces lactis) of the same compound?
Answer: inactive

Question: What about the inhibition (Saccharomyces cerevisiae [8]) of the same compound?
Answer: 79.9%

Question: What about the Activity [9] of the same compound?
Answer: Non-Toxic

Question: And the Activity [10]?
Answer: Non-Toxic

Question: And the inhibition [11]?
Answer: inactive

Question: What about the Activity [12] of the same compound?
Answer: Non-Toxic

Question: What about the Activity (Mus musculus [13]) of the same compound?
Answer: Active

Question: And the “inhibition (INH)” value [14]?
Answer: Not Active

Question: And the Ratio Ki (Saccharomyces cerevisiae [15])?
Answer: 7

Question: What about the inhibition (Prunus dulcis) of the same compound?
Answer: inactive

Question: With `O=S(=O)(NCCc1cn(S(=O)(=O)c2ccccc2)cn1)c1ccccc1` as the compound, how does the inhibition (Saccharomyces cerevisiae [1]) read?
Answer: > 50%

Question: With `Cc1ccc(S(=O)(=O)NCCc2c[nH]cn2)cc1` as the compound, how does the inhibition (Saccharomyces cerevisiae [1]) read?
Answer: < 50%

Question: Which inhibition (Saccharomyces cerevisiae [1]) does the source give for `O=S(=O)(NCCc1cn(S(=O)(=O)c2ccc(F)cc2Cl)cn1)c1ccc(F)cc1Cl` here?
Answer: > 50%

Question: For `COc1ccc(S(=O)(=O)NCCc2cn(S(=O)(=O)c3ccc(OC)c(F)c3)cn2)cc1F`, which inhibition (Saccharomyces cerevisiae [1]) is on record?
Answer: > 50%

Question: Which inhibition (Saccharomyces cerevisiae [1]) does the source give for `Cc1ccc(S(=O)(=O)NCCc2cn(S(=O)(=O)c3ccc(C)cc3)cn2)cc1` here?
Answer: > 50%

Question: Which IC50 [16] does the source give for `OC[C@H]1NC[C@H](O)[C@@H](O)[C@@H]1O` [DUVOGLUSTAT] here?
Answer: 65.2 µM

Question: For `O=S(=O)(NCCc1cn(S(=O)(=O)c2cc(F)c(F)c(F)c2)cn1)c1cc(F)c(F)c(F)c1`, which inhibition (Saccharomyces cerevisiae [1]) is on record?
Answer: > 50%

Question: Which “inhibition (INH)” value [2] does the source give for `Cc1ccc(F)c(S(=O)(=O)NCCc2cn(S(=O)(=O)c3cc(C)ccc3F)cn2)c1` here?
Answer: Not Active

Question: And the inhibition (Saccharomyces cerevisiae [1])?
Answer: > 50%

Question: And the inhibition [4]?
Answer: 7.14%

Question: What about the inhibition (Kluyveromyces lactis) of the same compound?
Answer: inactive

Question: What about the inhibition (Saccharomyces cerevisiae [8]) of the same compound?
Answer: 72.2%

Question: What about the inhibition [11] of the same compound?
Answer: inactive

Question: And the “inhibition (INH)” value [14]?
Answer: Not Active

Question: What about the inhibition (Prunus dulcis) of the same compound?
Answer: inactive

Question: For `O=S(=O)(NCCc1c[nH]cn1)c1ccc(F)cc1`, which inhibition (Saccharomyces cerevisiae [1]) is on record?
Answer: < 50%

Question: With `O=S(=O)(NCCc1cn(S(=O)(=O)c2ccc(F)cc2C(F)(F)F)cn1)c1ccc(F)cc1C(F)(F)F` as the compound, how does the inhibition (Saccharomyces cerevisiae [1]) read?
Answer: > 50%

Question: Which inhibition (Saccharomyces cerevisiae [1]) does the source give for `O=S(=O)(NCCc1c[nH]cn1)c1ccc(C(F)(F)F)cc1` here?
Answer: < 50%

Question: With `COc1ccc(S(=O)(=O)NCCc2c[nH]cn2)cc1F` as the compound, how does the inhibition (Saccharomyces cerevisiae [1]) read?
Answer: < 50%

Question: Which inhibition (Saccharomyces cerevisiae [1]) does the source give for `O=S(=O)(NCCc1cn(S(=O)(=O)c2ccc(F)cc2)cn1)c1ccc(F)cc1` here?
Answer: > 50%

Question: For `O=S(=O)(NCCc1cn(S(=O)(=O)c2c(F)c(F)c(F)c(F)c2F)cn1)c1c(F)c(F)c(F)c(F)c1F`, which inhibition (Saccharomyces cerevisiae [1]) is on record?
Answer: > 50%

Question: For `OC[C@H]1NC[C@H](O)[C@@H](O)[C@H]1O`, which IC50 [17] is on record?
Answer: 90 µM

Question: Which inhibition (Saccharomyces cerevisiae [1]) does the source give for `O=S(=O)(NCCc1c[nH]cn1)c1ccccc1` here?
Answer: < 50%

Question: With `O=S(=O)(NCCc1c[nH]cn1)c1cc(F)c(F)c(F)c1` as the compound, how does the inhibition (Saccharomyces cerevisiae [1]) read?
Answer: < 50%
